In patent US10760052B2, “Method of inhibiting tau phosphorylation” (priority 2012, dated 2020):

Key:
TLR4-FLNA complex = target: T1, TLR4-FLNA complex (Homo sapiens, UniProt P21333); assay: Postmortem human frontal cortex: TLR4-FLNA association; assay type: cell-based; details: AD and Aβ42-treated control tissue; 0.1 or 1 nM
T1 construct: from tissue; host or cells: postmortem frontal cortex slices / synaptosomes (AD and control subjects)
Description: Postmortem frontal cortex tissues were gradually thawed (from −80° C. to −20° C.) and were sliced using a chilled McIlwain tissue chopper (200 μm×200 μm×3 mm). […] Following two additional washes with 1 ml of ice-cold K-R, brain slices were suspended in 1 ml of K-R.
Incubation continued for 1 hour in the dark to minimize light destruction of the test agents. […] Reaction was terminated by the addition of 1.5 ml of ice-cold Ca^2+-free K-R. Tissue slices were harvested by a brief centrifugation and used as the tissue sources for various assays.

FLNA = target: T2, FLNA (Homo sapiens, UniProt P21333); assay: [3H]NLX competition binding to FLNA in A7 cell membranes; details: 0.5 nM [3H]NLX, N=4, read-out: IC50-L, inhibition of [3H]NLX binding
T2 construct: validate the use of that 5-mer peptide as a surrogate for the complete molecule in the assays carried out herein; host or cells: A7 cells
T2 sequence (P21333 whole entry): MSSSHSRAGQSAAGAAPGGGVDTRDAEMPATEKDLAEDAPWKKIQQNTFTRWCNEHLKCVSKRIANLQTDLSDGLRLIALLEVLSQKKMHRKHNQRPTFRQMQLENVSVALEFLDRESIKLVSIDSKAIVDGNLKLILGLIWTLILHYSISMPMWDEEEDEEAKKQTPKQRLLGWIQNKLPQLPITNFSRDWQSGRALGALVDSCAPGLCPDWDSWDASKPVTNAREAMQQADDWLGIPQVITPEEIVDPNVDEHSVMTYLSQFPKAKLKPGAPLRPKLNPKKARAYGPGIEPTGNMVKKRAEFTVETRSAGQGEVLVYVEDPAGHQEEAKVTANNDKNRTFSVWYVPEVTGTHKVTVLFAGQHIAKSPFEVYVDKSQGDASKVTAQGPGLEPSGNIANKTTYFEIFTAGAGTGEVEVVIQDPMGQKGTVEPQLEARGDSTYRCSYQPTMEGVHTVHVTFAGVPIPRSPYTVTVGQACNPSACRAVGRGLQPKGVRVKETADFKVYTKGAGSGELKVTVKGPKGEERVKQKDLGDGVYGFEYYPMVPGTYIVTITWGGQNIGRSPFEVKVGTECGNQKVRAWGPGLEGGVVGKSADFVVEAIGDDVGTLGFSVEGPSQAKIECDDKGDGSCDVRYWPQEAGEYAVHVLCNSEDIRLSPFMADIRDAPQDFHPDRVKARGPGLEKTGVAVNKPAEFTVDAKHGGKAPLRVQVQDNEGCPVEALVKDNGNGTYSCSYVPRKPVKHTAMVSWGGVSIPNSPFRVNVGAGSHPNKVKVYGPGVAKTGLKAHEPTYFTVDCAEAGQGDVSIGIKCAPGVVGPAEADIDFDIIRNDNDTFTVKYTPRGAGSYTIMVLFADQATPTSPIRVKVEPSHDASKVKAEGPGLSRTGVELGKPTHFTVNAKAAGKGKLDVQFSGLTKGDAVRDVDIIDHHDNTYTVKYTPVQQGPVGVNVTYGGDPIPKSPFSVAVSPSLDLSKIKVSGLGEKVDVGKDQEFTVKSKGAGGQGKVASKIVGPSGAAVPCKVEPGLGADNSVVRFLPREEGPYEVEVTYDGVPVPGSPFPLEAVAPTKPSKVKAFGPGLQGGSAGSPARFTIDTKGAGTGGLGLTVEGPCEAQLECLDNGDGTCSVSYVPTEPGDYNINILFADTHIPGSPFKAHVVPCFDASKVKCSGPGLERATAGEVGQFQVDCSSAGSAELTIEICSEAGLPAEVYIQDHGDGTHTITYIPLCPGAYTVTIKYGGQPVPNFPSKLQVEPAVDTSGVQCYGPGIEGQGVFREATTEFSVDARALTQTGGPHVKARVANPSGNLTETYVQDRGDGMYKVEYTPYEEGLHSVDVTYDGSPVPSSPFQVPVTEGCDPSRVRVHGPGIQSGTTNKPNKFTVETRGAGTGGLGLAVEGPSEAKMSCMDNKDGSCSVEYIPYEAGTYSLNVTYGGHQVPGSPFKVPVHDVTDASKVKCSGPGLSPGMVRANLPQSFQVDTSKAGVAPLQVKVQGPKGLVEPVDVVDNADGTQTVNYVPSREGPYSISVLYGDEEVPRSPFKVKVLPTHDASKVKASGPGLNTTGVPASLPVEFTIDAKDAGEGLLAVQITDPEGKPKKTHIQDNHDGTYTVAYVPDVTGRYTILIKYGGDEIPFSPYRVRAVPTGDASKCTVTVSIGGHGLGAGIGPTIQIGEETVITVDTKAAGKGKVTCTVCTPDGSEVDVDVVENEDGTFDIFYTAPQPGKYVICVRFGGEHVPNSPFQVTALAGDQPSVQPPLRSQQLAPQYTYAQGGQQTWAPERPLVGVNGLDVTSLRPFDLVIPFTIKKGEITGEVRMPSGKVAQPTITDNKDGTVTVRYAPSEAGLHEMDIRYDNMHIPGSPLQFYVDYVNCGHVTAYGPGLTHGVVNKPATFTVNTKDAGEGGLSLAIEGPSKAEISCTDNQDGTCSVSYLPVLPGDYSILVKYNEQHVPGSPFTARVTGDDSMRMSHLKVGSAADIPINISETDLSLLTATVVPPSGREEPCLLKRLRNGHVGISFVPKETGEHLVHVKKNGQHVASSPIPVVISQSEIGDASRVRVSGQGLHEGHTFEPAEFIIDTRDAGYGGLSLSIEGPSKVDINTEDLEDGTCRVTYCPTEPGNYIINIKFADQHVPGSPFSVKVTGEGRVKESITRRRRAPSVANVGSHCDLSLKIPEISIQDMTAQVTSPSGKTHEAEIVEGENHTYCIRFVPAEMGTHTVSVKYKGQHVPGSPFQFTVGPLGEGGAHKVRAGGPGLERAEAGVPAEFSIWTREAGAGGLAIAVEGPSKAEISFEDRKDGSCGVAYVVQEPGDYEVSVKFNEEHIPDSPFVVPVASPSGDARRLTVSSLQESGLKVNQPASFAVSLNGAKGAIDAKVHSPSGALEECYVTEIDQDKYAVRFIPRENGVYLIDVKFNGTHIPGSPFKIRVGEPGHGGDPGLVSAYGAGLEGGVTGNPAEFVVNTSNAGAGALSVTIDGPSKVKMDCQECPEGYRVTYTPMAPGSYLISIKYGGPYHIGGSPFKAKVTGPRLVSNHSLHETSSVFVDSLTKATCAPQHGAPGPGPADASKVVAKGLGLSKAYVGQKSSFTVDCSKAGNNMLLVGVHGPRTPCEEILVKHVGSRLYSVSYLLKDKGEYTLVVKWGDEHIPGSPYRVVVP

[1] = tested on: voltage-gated Ca2+ channel mediated Ca2+ influx; assay type: cell-based, rat; details: slice cultures
NMDAR [2] = assay type: cell-based, rat; details: slice cultures, 0.1 μM Aβ42
α7nAChR = assay type: cell-based, rat
NMDAR [3] = assay type: cell-based, human; details: AD and Aβ42-treated control brain slices
FLNA-α7nAChR association = assay: FLNA association with α7nAChR in organotypic frontocortical slice cultures; assay type: cell-based, rat; details: 100 nM Aβ42, 16 hours, compound added simultaneously
Description: (§1) Tissue was harvested and solubilized, and a specific antibody against FLNA was used to immunoprecipitate FLNA and associated proteins. The FLNA immunoprecipitate was size-fractionated using SDS-PAGE, transferred and probed with specific antibodies directed against each of the following receptors: α7nAChR, TLR4, IR and MOR.
(§2) Rat brain slice organotypic culture methods were modified from those published previously. [Adamchik et al., Brain Res Brain Res Protoc 5:153-158 (2000).] FCX slices ([…]) were transferred to sterile, porous Millicell-CM inserts (0.4 μm). Each culture insert unit contained two brain slices and was placed into individual wells of a 12-well culture tray in 2 ml medium: 50% MEM with Earl's salts, 2 mM L-glutamine, 25% Earl's balanced salt solution, 6.5 g/l D-glucose, 20% fetal bovine serum (FBS), 5% horse serum, 25 mM HEPES buffer, pH 7.2, and […]. […]
(§3) The level of FLNA-associated α7nAChRs was determined using a co-immunoprecipitation/Western blotting method as described previously. […] The levels of FLNA-associated α7nAChR, TLR4, IR and MOR were assessed by Western blotting using specific antibodies directed against the respective proteins and the blot stripped and re-probed for FLNA for immunoprecipitation/loading control.

FLNA-TLR4 association = assay: FLNA association with TLR4 in organotypic frontocortical slice cultures; assay type: cell-based, rat; details: 100 nM Aβ42, 16 hours, compound added simultaneously
Description: as §1, §2, §3

NMDAR [4] = assay type: in vivo, mouse; details: 10 mg/kg twice daily
ERK2 = assay: Aβ42-induced ERK2 activation (pERK2) in rat frontal cortical synaptosomes; assay type: cell-based; details: simultaneous treatment
Description: FIG. 3 in two panels as FIG. 3A and FIG. 3B, illustrates that FLNA-binding compounds reduce Aβ-induced α7nAChR-mediated ERK2 signaling. In the same treated synaptosomes used in FIG. 2, levels of phosphorylated (activated) ERK2 were measured in immunoprecipitates of ERK2. […] Immunoprecipitates were determined by Western blotting (FIG. 3A) and quantified for four compounds by densitometry (FIG. 3B). n=3.
Phosphorylation of ERK2 indicates its activation, which leads to tau phosphorylation.

[5] = tested on: voltage-gated Ca2+ channel mediated Ca2+ influx; assay type: in vivo, mouse; details: 10 mg/kg twice daily
[6] = tested on: tau phosphorylated at S202, T231 and T181; assay: Postmortem human frontal cortical synaptosomes: Aβ42-induced tau phosphorylation with VAKGL decoy; assay type: cell-based; details: postmortem control frontocortical tissue
Description: FIG. 34 VAKGL (SEQ ID NO: 1) pentapeptide (10 μM) blocks Compound C0105's prevention of tau phosphorylation. Again using postmortem frontal cortical synaptosomes, the VAKGL pentapeptide blocks C0105's reduction in tau phosphorylation at all three phosphorylation sites found in neurofibrillary tangles. Western blots (FIG. 34A), in which numerals outside of and to the left of the blots are as discussed before, were analyzed by densitometric quantitation (FIG. 34B). Data are means±SEM. n=3. *p<0.01 vs. the respective basal level; # p<0.01 vs. Aβ42-exposed tissues.
In postmortem control frontocortical tissue, the FLNA pentapeptide binding site of Compound C0105 (VAKGL of SEQ ID NO: 1) was used as a decoy to block the attenuation of FLNA association with α7nAChR and TLR4 by Compound C0105 (FIG. 33).

insulin receptor (IR) = assay: IR activation and signaling (pY1150/1151 IRβ, IRS-1) in slice cultures; assay type: cell-based, rat; details: insulin stimulation
Description: IR activation and signaling was initiated by incubation of 6 slices that were further chopped horizontally into 100 μm (100 μm×200 μm×3 mm) with either KR (basal) or KR containing 1 nM insulin at 37° C. for 30 minutes. […] Ligand stimulation was terminated by the addition of 1 ml of ice-cold Ca^2+-free K-R containing mixture of protein phosphatase inhibitors, 0.5 mM EGTA and 0.1 mM EDTA. Brain slices were harvested by a brief centrifugation and were homogenized in 0.25 ml of ice-cold immunoprecipitation buffer. The homogenates were centrifuged at 1000×g for 5 minutes (4° C.) and the supernatant (post-mitochondrial fraction) was sonicated for 10 seconds on ice. […] The resultant lysates were then cleared by centrifugation at 50,000×g for 5 minutes and diluted with 0.75 ml of immunoprecipitation buffer. Protein concentrations were measured by Bradford method (Bio-Rad).
In these experiments, brain slice lysates (100 μg) were immunoprecipitated overnight (about 18 hours) at 4° C. with 2 μg of immobilized anti-IRβ onto covalently conjugated protein A-agarose beads (Pierce-ENDOGEN). […]

α7nAChR (Aβ42 binding) = assay: FITC-Aβ42 binding to biotinylated α7nAChR-containing SK-N-MC cell fragments; parameters: species or system human; details: added simultaneously, 30° C., 30 minutes

Structure (SMILES): CN1CCC2(CC1)NCC(=O)N2Cc1ccccc1 [Compound C0105]
- FLNA association with TLR4 (TLR4-FLNA complex): reduces Aβ42-induced FLNA association with α7nAChR and TLR4
- IC50 (FLNA): 0.226 nM
- Aβ42-induced reduction of K+-evoked calcium influx [1]: completely reversed by 1 and 10 nM
- Aβ42-induced impairment in NMDAR function (calcium influx after NMDA and glycine) (NMDAR [2]): completely prevented by 1 and 10 nM
- Aβ42-induced impairment in α7nAChR function (calcium influx after PNU282987) (α7nAChR): fully restoring function
- Functioning of NMDAR (calcium influx after receptor stimulation) (NMDAR [3]): preserves functioning
- Aβ42-induced increase in FLNA-α7nAChR association (FLNA-α7nAChR association): reduced the Aβ42-induced increase in FLNA-α7nAChR association at 0.1, 1 and 10 nM
- Aβ42-induced increase in FLNA-TLR4 association (FLNA-TLR4 association): reduced the increase in FLNA-TLR4 at 1 and 10 nM
- Aβ42-induced NMDAR dysfunction (calcium influx after NMDA and glycine) (NMDAR [4]): restored the Aβ42-induced NMDAR dysfunction
- ERK2 activation (pERK2) (ERK2): greatly suppressed
- K+-evoked calcium influx [5]: restored it
- Aβ42-induced tau phosphorylation [6]: inhibits tau phosphorylation
- Aβ42-induced IR signaling impairments (IRS-1 association, pY1150/1151 IRβ) (insulin receptor (IR)): normalized the signaling impairments
- Inhibition of FITC-Aβ42 binding (α7nAChR (Aβ42 binding); 0.1 nM compound): 52.3±3.7%
- Inhibition of FITC-Aβ42 binding (α7nAChR (Aβ42 binding); 1 nM compound): 55.1±3.0%
- Inhibition of FITC-Aβ42 binding (α7nAChR (Aβ42 binding); 10 nM compound): 56.5±4.2%
